Structures are written as SMILES.

The experiment has as its target T1, full-length human PKCι (Homo sapiens, UniProt P41743).
T1 construct: Recombinant, full-length human PKCι expressed in Sf21 insect cells is also commercially available; purchased EMD Millipore; host or cells: Sf21 insect cells (baculovirus)
T1 sequence (P41743 1-596): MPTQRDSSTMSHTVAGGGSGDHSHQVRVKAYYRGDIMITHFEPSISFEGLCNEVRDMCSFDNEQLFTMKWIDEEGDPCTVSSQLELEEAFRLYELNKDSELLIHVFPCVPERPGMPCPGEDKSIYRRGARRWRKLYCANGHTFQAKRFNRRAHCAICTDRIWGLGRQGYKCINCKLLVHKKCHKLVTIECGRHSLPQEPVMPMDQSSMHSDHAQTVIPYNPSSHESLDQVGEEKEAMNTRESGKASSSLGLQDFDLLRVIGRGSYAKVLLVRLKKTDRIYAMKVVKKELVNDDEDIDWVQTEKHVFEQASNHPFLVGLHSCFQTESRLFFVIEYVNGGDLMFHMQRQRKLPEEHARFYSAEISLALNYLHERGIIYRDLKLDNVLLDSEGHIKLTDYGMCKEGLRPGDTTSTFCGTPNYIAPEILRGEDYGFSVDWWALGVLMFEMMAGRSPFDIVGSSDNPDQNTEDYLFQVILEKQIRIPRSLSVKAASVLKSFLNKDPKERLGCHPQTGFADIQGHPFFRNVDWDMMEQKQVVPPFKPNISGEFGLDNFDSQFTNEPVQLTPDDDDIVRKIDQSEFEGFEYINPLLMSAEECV
In words: PKCι IC50 IMAP fluorescence polarisation assay, full-length enzyme, 150 μM ATP. It is filed as biochemical. The note with it: read-out: IC50 in IMAP assay against full length PKCi at 150 μM ATP. In short, it runs like this: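 IMAP fluorescence polarisation kinase assay: 15 pM baculovirus-expressed human PKCiota with 100 nM FAM-pseudosubstrate peptide and 150 μM ATP, 1 h at 25 °C. IMAP detection reagent then 2 h at 25 °C before FP measurement. Inhibition referenced to no-compound and no-enzyme controls for IC50 fitting.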
For orientation: Polarisation of emitted light reports the rotation of a fluorescent probe.
`COc1cccc(Nc2cc(-c3nc(N[C@H]4CCNCC4(C)C)c4c(C5CCC5)cncc4n3)ccn2)n1` [Example 383, {5-Cyclobutyl-2-[2-(6-methoxy-pyridin-2-ylamino)-pyridin-4-yl]-pyrido[3,4-d]pyrimidin-4-yl}-((S)-3,3-dimcthyl-piperidin-4-yl)-amine]: the IC50 is below 100 nM.
Then `Fc1cccnc1-c1cc2c(-c3nc(N4CC[C@H]5NCC[C@H]54)c4c(C5CCC5)cncc4n3)ccnc2[nH]1` (racemic) [Example 57, (±)-5-Cyclobutyl-2-[2-(3-fluoro-pyridin-2-yl)-1H-pyrrolo[2,3-b]pyridin-4-yl]-4-(3,6- cis)-hexahydro-pyrrolo[3,2-b]pyrrol-1-yl-pyrido[3,4-d]pyrimidine], with below 100 nM; and `CC1(C)CNCC[C@@H]1Nc1nc(-c2ccnc(Nc3ncccc3Cl)c2)nc2cncc(C3CCC3)c12` [Example 336, 2-[2-[(3-Chloro-2-pyridyl)amino]-4-pyridyl]-5-cyclobutyl-N-[(4S)-3,3-dimethyl-4-piperidyl]pyrido [3,4-d]pyrimidin-4-amine], with below 100 nM.
In the case of `c1cc(-c2nc(N3CCNCC3)c3c(C4CC4)cncc3n2)cc(Nc2nc3n(n2)CCCC3)n1` [Example 205, [4-(5-Cyclopropyl-4-piperazin-1-yl-pyrido[3,4-d]pyrimidin-2-yl)-pyridin-2-yl]-(5,6,7,8-tetrahydro-[1,2,4]triazolo[1,5-a]pyridin-2-yl)-amine], the concentration for half-maximal inhibition (IC50) was below 100 nM.
Regarding `CC1(C)CNCC[C@@H]1Nc1nc(-c2ccnc(Nc3ncn(Cc4ccccc4)n3)c2)nc2cncc(C3CC3)c12` [Example 242, {2-[2-(1-Benzyl-1H-1,2,4-triazol-3-ylamino)-pyridin-4-yl]-5-cyclopropyl-pyrido[3,4-d]pyrimidin-4-yl}-((S)-3,3-dimethyl-piperidin-4-yl)-amine], the IC50 was below 100 nM.
Then `Fc1cc(F)c(Nc2cc(-c3nc(N4CCOC5CNCC54)c4c(C5CC5)cncc4n3)ccn2)nc1F` (centres unmarked) [Example 202, {4-[5-Cyclopropyl-4-(hexahydro-pyrrolo[3,4-b][1,4]oxazin-4-yl)-pyrido[3,4-d]pyrimidin-2-yl]-pyridin-2-yl}-(3,5,6-trifluoro-pyridin-2-yl)-amine], with below 100 nM; and `C[C@H]1C[C@@H](Nc2nc(-c3ccnc(Nc4nc(F)ccc4F)c3)nc3cncc(C4CCC4)c23)CCN1` (racemic) [Example 386, {5-Cyclobutyl-2-[2-(3,6-difluoro-pyridin-2-ylamino)-pyridin-4-yl]-pyrido[3,4-d]pyrimidin-4-yl}-(rac-(2S,4S)-2-methyl-piperidin-4-yl)-amine], with below 100 nM; and `CC1(C)CNCCC1Nc1nc(-c2ccnc(Nc3cc(F)cc(F)n3)c2)nc2cncc(C3CCC3)c12` (centres unmarked) [Example 105, {5-Cyclobutyl-2-[2-(4,6-difluoro-pyridin-2-ylamino)-pyridin-4-yl]-pyrido[3,4-d]pyrimidin-4-yl}-(3,3-dimethyl-piperidin-4-yl)-amine], with 100 to 1000 nM.
With `CC1(C)CNCCC1Nc1nc(-c2ccnc(Nc3ccccc3)c2)nc2cncc(C3CCC3)c12` (centres unmarked) [Example 91, [5-Cyclobutyl-2-(2-phenylamino-pyridin-4-yl)-pyrido[3,4-d]pyrimidin-4-yl]-(3,3-dimethyl-piperidin-4-yl)-amine], the half-maximal inhibitory concentration (IC50) is below 100 nM.
The figure for `CC1(C)CNCCC1Nc1nc(-c2ccnc(Nc3ccc(F)cn3)c2)nc2cncc(C3CCC3)c12` (centres unmarked) [Example 67, {5-Cyclobutyl-2-[2-(5-fluoro-pyridin-2-ylamino)-pyridin-4-yl]-pyrido[3,4-d]pyrimidin-4-yl}-(3,3-dimethyl-piperidin-4-yl)-amine] is below 100 nM; for `CC1(C)CNCC[C@@H]1Nc1nc(-c2ccnc(Nc3nc(F)c(F)cc3F)c2)nc2cncc(C3CC3)c12` [Example 278, {5-Cyclopropyl-2-[2-(3,5,6-trifluoro-pyridin-2-ylamino)-pyridin-4-yl]-pyrido[3,4-d]pyrimidin-4-yl}-((S)-3,3-dimethyl-piperidin-4-yl)-amine] it is below 100 nM.
In the case of `C[C@H]1CNCC[C@@H]1Nc1nc(-c2ccnc(Nc3nc(F)ccc3F)c2)nc2cncc(C3CC3)c12` (single isomer, unassigned) [Example 334, 5-Cyclopropyl-2-[2-[(3,6-difluoro-2-pyridyl)amino]-4-pyridyl]-N-[(3S,4S)-3-methyl-4-piperidyl]pyrido[3,4-d]pyrimidin-4-amine or enantiomer], the 50% inhibitory concentration (IC50) was below 100 nM.
Regarding `Fc1ccc(F)c(Nc2cc(-c3nc(NC45CCNCC4C5)c4c(C5CCC5)cncc4n3)ccn2)n1` (centres unmarked) [Example 209, (3-Aza-bicyclo[4.1.0]hept-6-yl)-{5-cyclobutyl-2-[2-(3,6-difluoro-pyridin-2-ylamino)-pyridin-4-yl]-pyrido[3,4-d]pyrimidin-4-yl}-amine], the IC50 is below 100 nM.
As for `Fc1cccnc1-c1cc2c(-c3nc(N4CCOC5CNCC54)c4c(C5CCC5)cncc4n3)ccnc2[nH]1` (centres unmarked) [Example 259, 5-Cyclobutyl-2-[2-(3-fluoro-pyridin-2-yl)-1H-pyrrolo[2,3-b]pyridin-4-yl]-4-(hexahydro-pyrrolo[3,4-b]-1,4-oxazin-4-yl)-pyrido[3,4-d]pyrimidine], the IC50 is below 100 nM.
`CC1(C)CNCC[C@H]1Nc1nc(-c2ccnc(Nc3nc(F)ccc3F)c2)nc2cncc(C3CC3)c12` [Example 157, {5-Cyclopropyl-2-[2-(3,6-difluoro-pyridin-2-ylamino)-pyridin-4-yl]-pyrido[3,4-d]pyrimidin-4-yl}-((R)-3,3-dimethyl-piperidin-4-yl)-amine]: the half-inhibitory concentration (IC50) is 100 to 1000 nM.
`Cc1ccc(-c2cc3c(-c4nc(N5CCNCC5)c5c(C6CC6)cncc5n4)ccnc3[nH]2)s1` [Example 41, 5-Cyclopropyl-2-[2-(5-methyl-thiophen-2-yl)-1H-pyrrolo[2,3-b]pyridin-4-yl]-4-piperazin-1-yl-pyrido[3,4-d]pyrimidine]: the IC50 was below 100 nM.
In the case of `CC1(C)CNCC[C@@H]1Nc1nc(-c2ccnc(Nc3ccccn3)c2)nc2cncc(C3CCC3)c12` [Example 388, {5-Cyclobutyl-2-[2-(pyridin-2-ylamino)-pyridin-4-yl]-pyrido[3,4-d]pyrimidin-4-yl}-((S)-3,3-dimethyl-piperidin-4-yl)-amine], the IC50 is below 100 nM.
Then `Cc1cc2c(-c3nc(N[C@H]4CCNCC4(C)C)c4c(C5CC5)cncc4n3)ccnc2[nH]1` [Example 153, [5-Cyclopropyl-2-(2-methyl-1H-pyrrolo[2,3-b]pyridin-4-yl)-pyrido[3,4-d]pyrimidin-4-yl]-((S)-3,3-dimethyl-piperidin-4-yl)-amine], with 100 to 1000 nM; and `CC1(C)CNCC[C@@H]1Nc1nc(-c2ccnc(Nc3ccc(F)cn3)c2)nc2cncc(C3CCC3)c12` [Example 389, {5-Cyclobutyl-2-[2-(5-fluoropyridin-2-ylamino)-pyridin-4-yl]-pyrido[3,4-d]pyrimidin-4-yl}-((S)-3,3-dimethyl-piperidin-4-yl)-amine], with below 100 nM; and `CC1(C)CNCC[C@@H]1Nc1nc(-c2ccnc3[nH]c(-c4ccccc4F)cc23)nc2cncc(C3CC3)c12` [Example 394, {5-Cyclopropyl-2-[2-(2-fluoro-phenyl)-1H-pyrrolo[2,3-b]pyridin-4-yl]-pyrido[3,4-d]pyrimidin-4-yl}-((S)-3,3-dimethyl-piperidin-4-yl)-amine], with below 100 nM.

As usually defined, the IC50 is the concentration at which inhibition is half-maximal.
